According to patent publication US20120014917A1, “METHODS OF TREATING HIV PATIENTS WITH ANTI-FIBROTICS” (University of Minnesota, priority 2009, published 2012):
“Also recorded” adds a separate entry of the source.

Experiments:
[1] = system: SIV MAC239; test: Pirfenidone in SIV-infected non-human primate model (FIG. 1 protocol, Example 2); type: in vivo
Excerpt: Venous blood will be used to measure CD4^+ cell count by flow cytometry. Tissue biopsies (LN and ileal GALT samples) are divided; one portion will be processed by immunohistochemical staining for quantitative image analysis to determine the absolute size of the total CD4^+ cell population, and the remaining portion will be processed by flow cytometry to proportionately quantify CD4^+ cells (total, naïve, central memory [CM], and effector memory [EM] T cells). These methods have been published elsewhere [Schacker et al., 2006, Clinical and Vaccine Immunology 13:556-60; Schacker et al., 2005, AIDS 19:2169-71; Schacker et al., 2002, J Clin Invest 110:1133-9; Schacker J Infect Dis 186:1092-7]. For flow cytometry, a portion of LN tissue and GALT will be placed on ice and CD4^+ cells are isolated within 24 hours by gently separating the cells from surrounding tissue by using a mesh screen. One million cells are washed once in FACS wash (PBS supplemented with 0.1% sodium azide and 2% bovine serum albumin; Sigma). After aspiration of the supernatant, cells will be stained with peridin clorophylla protein-conjugated CD4, allophycocyanin conjugated CD8, phycoerythrin conjugated CD27, and fluorescein isothiocyanate-conjugated CD45RO (all BD Pharmingen), and incubated for 30 min at 4° C., followed by another wash. Cells will be fixed with 1% paraformaldahyde (Electron Microscopy Sciences) and analyzed on a FACS Calibur flow cytometer (BD Pharmingen). Lymphocytes will be gated on the basis of characteristic forward and side scatter properties, followed by separation into CD4^+ T cells and CD8^+ T cells on the basis of expression of CD4 and CD8. Naive T cells are classified by expression of CD27 without expression of CD45RO, as described elsewhere [Brenchley et al., 2003, Blood 101:2711-20]. CM T cells will be classified by coexpression of CD27 and CD45RO, and EM T cells are classified by lack of CD27 expression.
To quantify the total CD4^+ T cell population in each compartment, 4-μm sections will be prepared from the fixed tissues and stained with antibody for CD4 by using either clone 1F6 (Ventana Medical Systems) or clone 4B12 (Neomarkers; Lab Vision). Images will be captured to quantify the percentage of tissue area occupied by CD4 by using PHOTOSHOP CS2, version 9.0 imaging software (ADOBE SYSTEMS, Inc.) with plug-ins from REINDEER GRAPHICS. Inc.
To quantify collagen in the TZ, methods similar to those previously published can be used [Schacker et al., 2002, J. Clin. Investig. 110:1133-1139]. Sections (4 μm) are stained using a modified trichrome stain to identify collagen fibers, and approximately 18 images from the TZ are captured and transported into PHOTOSHOP CS imaging software (ADOBE SYSTEMS, Inc.). Image analysis tools from REINDEER GRAPHICS, Inc. (Asheville, N.C.) may provide better sensitivity for isolating collagen fibers to quantify the percent area occupied by collagen.
In this study, six animals were divided into two groups of three animals each. One group received pirfenidone for 2 weeks and then was infected with SIV MAC239. […] Pirfenidone was continued for 12 weeks following infection and then discontinued for 12 weeks (i.e., week 24) and then restarted. Thus, the pirfenidone-treated group would receive pirfenidone from week −2 to week 12 (14 weeks) and from week 24 to week 36 (12 weeks) for a […]. […] The dose of pirfenidone used was 200 mg/kg orally, twice daily (BID) for a total daily dose of 400 mg/kg/day. This corresponds to a human dose of approximately 6.5 mg/kg BID.
A diagram of the protocol can be seen in FIG. 1. Lymph node and rectal biopsy samples were collected at day 0 and again at weeks 4, 12, 24, and 36 after infection. […]

[2] = system: SIV infection; test: 24-week study of pirfenidone plus ARV versus ARV only in SIV infection (FIG. 6 protocol, Example 4); type: in vivo
Method: FIG. 6 depicts a study protocol wherein pirfenidone is administered from Week −2 (relative to SIV infection) through the end of the study and co-administration of antiretroviral therapy is initiated at Week 8 and continued through the end of the study.
This example describes a 24-week study according to the protocol depicted in FIG. 6. In short, there were two groups in the study. The first group (group C as depicted in FIG. 6) received only ARV beginning at Week 8 (relative to SIV infection) of the study and continuing through week 24. The second group (group D as depicted in FIG. 6) received pirfenidone beginning at week −2 of the study and ARV beginning at Week 8. Both pirfenidone and ARV were then co-administered through Week 24 of the study. Tissues were biopsied at Week −2. Additional biopsies were conducted at Weeks 12, 16 and 24 (after sacrifice of the animal).

[3] = system: TNF-α, TGF-β1, bFGF, PDGF, and EGF; settings: reported in Zhang et al. 1998; Cain et al. 1998; cited from earlier work
[4] = system: collagen expression; matrix metalloproteinases (MMPs) and TIMPs; settings: reported; cited from earlier work

## Cc1ccc(=O)n(-c2ccccc2)c1 [pirfenidone]
[1]; 200 mg/kg orally BID (400 mg/kg/day)
  tolerability, adverse effects or toxicity: well-tolerated without adverse effects or toxicity
[1]; pirfenidone 200 mg/kg BID orally vs animals not given pirfenidone, FIG. 3A
  peripheral blood CD4 T cell count: no significant change; also recorded: no obvious difference
[1]; pirfenidone 200 mg/kg BID orally vs animals not given pirfenidone, FIG. 3B
  percent CD4 (CD4%) in peripheral blood: no significant change; also recorded: no obvious difference
[1]; pirfenidone 200 mg/kg BID orally vs animals not given pirfenidone, FIG. 3C
  plasma SIV RNA load (viral load): no significant change; also recorded: no obvious difference
[1]; pirfenidone 200 mg/kg BID vs animals not given pirfenidone, FIGS. 4, 5A, 11A
  fibrosis (percent area of T cell zone occupied by collagen) in lymph nodes: decreased; also recorded: significant reduction; also recorded: less fibrosis; also recorded: significant difference
[1]; pirfenidone 200 mg/kg BID vs animals not given pirfenidone, FIGS. 4, 5B, 11C
  size of the CD4+ T cell population (area staining positive for CD4) in lymph node T cell zone: increased; also recorded: more of the TZ stains positive for CD4^+ T cells; also recorded: higher CD4 numbers; also recorded: significant difference
[1]; pirfenidone only arm vs no treatment
  proportion of the TZ occupied by collagen (composite, FIG. 12A): lower
[1]; pirfenidone vs control animals, FIG. 4D
  CD4 population in Peyer's Patches: higher
[2]; ARV + pirfenidone arm vs ARV only
  proportion of the TZ occupied by collagen (composite, FIG. 12A): lower
[2]; animals treated with pirfenidone vs ARV only, FIG. 11D
  increase in the TZ area staining positive for CD4+ T cells upon initiation of ARV: greater increase
[2]; co-administration of pirfenidone and ARV relative to ARV alone, FIG. 12B
  rate of change in CD4+ area in TZ: improves
[2]; group D (pirfenidone + ARV) relative to group C (ARV only), week 16 through week 24, FIG. 9
  absolute number of naïve CD4 T cells of the TZ: increase
[2]; group D (pirfenidone + ARV) relative to group C (ARV only), week 16 through week 24, FIGS. 8, 11D
  number of CD4 T cells in the TZ (TZ area staining positive for CD4+ T cells): increased; also recorded: more of the TZ stains positive for CD4^+ T cells
[2]; group D (pirfenidone + ARV) relative to group C (ARV only), week 24, FIG. 10
  percentage of CD4 T cells in GALT: increased
[2]; group D (pirfenidone from week -2 + ARV from week 8) relative to group C (ARV only), FIGS. 7, 11B
  percentage area of the T cell zone with collagen: significantly lower; also recorded: significant reduction
[3]
  excessive biosynthesis or release of various cytokines such as TNF-α, TGF-β1, bFGF, PDGF, and EGF: inhibit
[4]
  balance of matrix metalloproteinases (MMPs) and their endogenous inhibitors (TIMPs): alter
  collagen expression: decrease
